Experimental data taken from ChEMBL document CHEMBL1149354, “A new series of pyridinyl-alkynes as antagonists of the metabotropic glutamate receptor 5 (mGluR5)” (Bioorg Med Chem Lett, 2006).
pIC50: −log10 of the molar value.

Tested on: not listed separately
Assay: Intrinsic clearance in rat liver microsomes
Assay type: ADME, Microsome

microsomal CLint | SMILES
278 µL/min/mg | Cc1cccc(C#CCOc2ccc(Cl)c(Cl)c2)n1

Target: Metabotropic glutamate receptor 5 (Homo sapiens, UniProt P41594)
Assay: Activity at human mGluR5 assessed as effect on glutamate-induced calcium ion mobilization by FLIPR
Assay type: functional

Metabotropic glutamate receptor 5, sequence (P41594 whole entry): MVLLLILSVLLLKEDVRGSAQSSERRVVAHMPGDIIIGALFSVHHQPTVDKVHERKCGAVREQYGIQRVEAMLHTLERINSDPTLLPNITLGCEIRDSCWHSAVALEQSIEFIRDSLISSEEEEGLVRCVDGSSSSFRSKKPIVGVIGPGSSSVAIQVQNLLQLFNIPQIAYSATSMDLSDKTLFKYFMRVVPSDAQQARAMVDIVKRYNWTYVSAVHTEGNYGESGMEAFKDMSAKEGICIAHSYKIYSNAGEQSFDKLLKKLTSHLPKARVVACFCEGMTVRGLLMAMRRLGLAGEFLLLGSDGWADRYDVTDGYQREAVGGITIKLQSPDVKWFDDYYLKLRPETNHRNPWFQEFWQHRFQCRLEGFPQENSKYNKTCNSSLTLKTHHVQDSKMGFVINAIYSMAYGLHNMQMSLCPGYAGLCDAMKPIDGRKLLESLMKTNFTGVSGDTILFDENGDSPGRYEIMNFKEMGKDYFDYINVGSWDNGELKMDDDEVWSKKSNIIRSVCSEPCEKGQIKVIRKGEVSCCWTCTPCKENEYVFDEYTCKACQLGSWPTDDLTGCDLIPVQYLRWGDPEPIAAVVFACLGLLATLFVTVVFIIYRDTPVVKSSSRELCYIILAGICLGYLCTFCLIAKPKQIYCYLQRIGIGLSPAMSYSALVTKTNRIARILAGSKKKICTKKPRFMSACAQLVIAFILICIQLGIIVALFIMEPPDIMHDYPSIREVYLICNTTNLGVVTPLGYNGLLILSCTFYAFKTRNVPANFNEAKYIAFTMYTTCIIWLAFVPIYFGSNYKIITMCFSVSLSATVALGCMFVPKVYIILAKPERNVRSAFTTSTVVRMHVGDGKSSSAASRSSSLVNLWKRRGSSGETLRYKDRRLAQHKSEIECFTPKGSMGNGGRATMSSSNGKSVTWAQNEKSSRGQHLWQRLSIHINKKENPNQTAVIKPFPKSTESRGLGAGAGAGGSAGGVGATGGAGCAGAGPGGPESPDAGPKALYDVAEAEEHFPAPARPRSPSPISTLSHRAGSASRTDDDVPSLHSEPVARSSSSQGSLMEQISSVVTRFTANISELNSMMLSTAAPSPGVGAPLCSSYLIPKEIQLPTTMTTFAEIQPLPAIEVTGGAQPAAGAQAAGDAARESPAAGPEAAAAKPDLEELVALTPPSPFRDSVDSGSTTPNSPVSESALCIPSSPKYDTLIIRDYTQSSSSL

SMILES | pIC50
COc1cccc(OCC#Cc2ccccn2)c1 | 5.81
Cc1ccc(OCC#Cc2cccc(C)n2)cc1 | 6.94
COc1cccc(OCC#Cc2cccc(C)n2)c1 | 6.40
Cc1cccc(C#CCOc2cccnc2)n1 | < 5.00
COc1cccc(OCC#Cc2ncccc2C)c1 | < 5.00
Cc1cccc(C#CCOc2ccc(Cl)c(Cl)c2)n1 | 7.82
Cc1cccc(C#CCOc2ccccc2Cl)n1 | < 5.52
COc1cccc(OCC#Cc2cnccn2)c1 | < 5.00
COc1cccc(OCC#Cc2ccncc2)c1 | < 5.00
Cc1ccc(OCC#Cc2cccc(C)n2)cn1 | 5.60
Cc1cccc(C#CCOc2cc(=O)[nH]c3ccccc23)n1 | 6.08
COC(=O)c1cncc(OCC#Cc2cccc(C)n2)c1 | 5.83
Cc1cccc(C#CCOc2ccc(C(C)C)cc2)n1 | 7.08
COc1cccc(OCC#Cc2ccc(C)cn2)c1 | 5.10

Further lines, results first:

pIC50 | SMILES
6.52 | CCC(O)(CO)c1cc(F)cc(OCC#Cc2ccccn2)c1 (stereo not drawn)
6.99 | Cc1cccc(C#CCOc2ccc(Cl)cc2)n1
< 5.00 | COc1cccc(OCC#Cc2cccc(OC)n2)c1
< 5.00 | COc1cccc(OCC#Cc2nccs2)c1
< 5.00 | Cc1cccc(C#CCOc2ccccc2)n1
6.38 | Cc1cccc(C#CCOc2cccc([N+](=O)[O-])c2)n1
< 5.00 | COc1cccc(OCC#Cc2cc(C)ccn2)c1
6.34 | COc1ccc(OCC#Cc2cccc(C)n2)cc1
7.44 | Cc1cccc(C#CCOc2ccc3c(c2)CCCC3)n1
7.00 | Cc1cccc(C#CCOc2cccc(Cl)c2)n1

Target: Metabotropic glutamate receptor 1 (Homo sapiens, UniProt Q13255)
Assay: Activity at human mGluR1 assessed as effect on glutamate-induced calcium ion mobilization by FLIPR
Assay type: functional

Metabotropic glutamate receptor 1, sequence (Q13255 whole entry): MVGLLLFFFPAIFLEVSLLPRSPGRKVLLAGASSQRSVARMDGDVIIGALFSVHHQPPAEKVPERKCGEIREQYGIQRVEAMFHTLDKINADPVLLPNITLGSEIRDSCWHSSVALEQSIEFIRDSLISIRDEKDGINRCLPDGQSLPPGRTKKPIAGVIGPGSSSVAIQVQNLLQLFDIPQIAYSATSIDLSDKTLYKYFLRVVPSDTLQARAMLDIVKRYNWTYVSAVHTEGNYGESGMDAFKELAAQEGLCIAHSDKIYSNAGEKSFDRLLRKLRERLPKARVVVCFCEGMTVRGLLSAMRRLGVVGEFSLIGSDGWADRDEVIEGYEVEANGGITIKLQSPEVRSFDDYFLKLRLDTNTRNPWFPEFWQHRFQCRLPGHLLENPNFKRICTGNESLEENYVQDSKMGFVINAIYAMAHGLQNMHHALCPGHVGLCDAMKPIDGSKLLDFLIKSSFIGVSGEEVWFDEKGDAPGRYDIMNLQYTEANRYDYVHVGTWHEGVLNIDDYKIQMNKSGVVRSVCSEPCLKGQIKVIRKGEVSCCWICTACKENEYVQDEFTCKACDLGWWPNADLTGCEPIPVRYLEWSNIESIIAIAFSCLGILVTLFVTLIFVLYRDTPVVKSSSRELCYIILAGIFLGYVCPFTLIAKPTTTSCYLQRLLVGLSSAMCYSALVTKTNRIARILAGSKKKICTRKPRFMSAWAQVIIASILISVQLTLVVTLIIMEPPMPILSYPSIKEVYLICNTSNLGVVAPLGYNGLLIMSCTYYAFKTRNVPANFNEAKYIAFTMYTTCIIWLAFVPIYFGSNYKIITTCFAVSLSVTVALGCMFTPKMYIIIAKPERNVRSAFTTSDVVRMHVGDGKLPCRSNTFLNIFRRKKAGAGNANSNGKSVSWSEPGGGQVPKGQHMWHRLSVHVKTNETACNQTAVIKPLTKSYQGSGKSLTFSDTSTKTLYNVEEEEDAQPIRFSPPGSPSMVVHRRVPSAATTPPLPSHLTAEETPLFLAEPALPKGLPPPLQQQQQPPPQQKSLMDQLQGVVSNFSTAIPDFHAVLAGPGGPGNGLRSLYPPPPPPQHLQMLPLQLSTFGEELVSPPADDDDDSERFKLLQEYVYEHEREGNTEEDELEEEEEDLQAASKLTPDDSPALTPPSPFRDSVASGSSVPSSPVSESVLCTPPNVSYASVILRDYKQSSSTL

pIC50 | SMILES
≤ 5.00 | CCC(O)(CO)c1cc(F)cc(OCC#Cc2ccccn2)c1 (stereo not drawn)
< 5.00 | COc1cccc(OCC#Cc2ccccn2)c1
< 5.00 | COc1cccc(OCC#Cc2cccc(C)n2)c1
